Laboratory results published in patent publication US12565489B2, “Heterocyclyl pyrimidines and triazines as novel fungicides” (Bayer Aktiengesellschaft, priority 2020, dated 2026).

Key:
Pyrenophora teres = Pyrenophora teres in vitro cell test; assay type: cell-based; settings: 144 h, 20 ppm of active ingredient, 6 days incubation, liquid culture, spectrometric measurement of mycelium growth, read-out: efficacy (inhibition of fungal growth)
Outline: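 Spore suspension grown in liquid glucose–peptone–yeast extract medium with compound added from DMSO solution. Mycelium growth read by absorbance after 6 days. Inhibition is relative to compound-free control wells.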

[1] = system: Colletotrichum lindemuthianum; assay: Colletotrichum lindemuthianum in vitro cell test; assay type: cell-based; settings: 144 h, 20 ppm of active ingredient, 6 days incubation, liquid culture, spectrometric measurement of mycelium growth, read-out: efficacy (inhibition of fungal growth)
Outline: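 C. lindemuthianum spores were incubated with DMSO-solubilized compounds in liquid glucose-peptone-yeast extract medium, scoring inhibition of germination and mycelial growth. Mycelial growth was measured spectrometrically after 6 days. Inhibition was calculated from absorbance relative to compound-free control wells.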

[2] = system: Colletotrichum lindemuthianum; assay: In vivo preventive test on Colletotrichum lindemuthianum (leaf spot on bean); settings: 168 h, 500 ppm of active ingredient, preventive spray on young bean plants, evaluated 7 days after inoculation, read-out: efficacy
Protocol: The active ingredients were made soluble and homogenized in a mixture of Dimethyl sulfoxide/Acetone//Tween®80 and then diluted in water to the desired concentration. The young plants of bean were treated by spraying the active ingredient prepared as described above. Control plants were treated only with an aqueous solution of Acetone/Dimethyl sulfoxide/Tween® 80. After 24 hours, the plants were contaminated by spraying the leaves with an aqueous suspension of Colletotrichum lindemuthianum spores.

Septoria tritici = Septoria tritici in vitro cell test; assay type: cell-based; settings: Zymoseptoria tritici, 168 h; 20 ppm of active ingredient; 7 days incubation; liquid culture, spectrometric measurement of mycelium growth; read-out: efficacy (inhibition of fungal growth)
Outline: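 Liquid culture of S. tritici spore suspension in defined mineral/sucrose medium with compounds added from DMSO solutions; measures inhibition of spore germination and mycelial growth. Growth inhibition derived from absorbance relative to untreated control wells.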

Botrytis cinerea = assay: In vivo preventive test on Botrytis cinerea (grey mould); settings: 500 ppm of active ingredient, preventive spray on young gherkin or cabbage plants, evaluated 4 to 5 days after inoculation, read-out: efficacy
Outline: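 Gherkin or cabbage seedlings sprayed preventively with compound (DMSO/acetone/Tween 80 formulation diluted in water); controls got solvent only. Leaves inoculated 24 h later by spraying aqueous B. cinerea spore suspension.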

Alternaria brassicae = assay: In vivo preventive test on Alternaria brassicae (leaf spot on radish or cabbage); settings: 144 h, 500 ppm of active ingredient, preventive spray on young radish or cabbage plants, evaluated 6 days after inoculation, read-out: efficacy
Pyricularia oryzae = assay: microbe, parasite or virus in culture; assay type: cell-based; settings: 120 h, read-out: efficacy (inhibition of fungal growth)
Alternaria alternata = Alternaria alternata in vitro cell test; assay type: cell-based; settings: 120 h, 20 ppm of active ingredient, 5 days incubation, liquid culture, spectrometric measurement of mycelium growth, read-out: efficacy (inhibition of fungal growth)
Outline: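 Spore suspension of A. alternata in glucose/mycological peptone/yeast extract liquid medium, with compounds added from DMSO solutions at a range of concentrations. After 5 days, mycelium growth was measured spectrometrically. Inhibition was expressed relative to absorbance of fungicide-free control wells.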

SMILES	inhibition at 20 ppm (Pyrenophora teres)	inhibition at 20 ppm [1]	pest or weed control at 500 ppm [2]	inhibition at 20 ppm (Septoria tritici)	pest or weed control at 500 ppm (Botrytis cinerea)	pest or weed control at 500 ppm (Alternaria brassicae)	inhibition at 20 ppm (Pyricularia oryzae)	inhibition at 20 ppm (Alternaria alternata)
Cc1ncc(Oc2cccc(C(F)(F)F)c2)c(C2=NOCC(Cc3ccc(C4CC4)cc3C)N2)n1 (racemic) [Compound I-029, (5RS)-5-[(4-cyclopropyl-2-methyl-phenyl)methyl]-3-[2-methyl-5-[3-(trifluoromethyl)phenoxy]pyrimidin-4-yl]-5,6-dihydro-4H-1,2,4-oxadiazine]	90 to 100%	90 to 100%	90 to 100%	90 to 100%	90 to 100%	90 to 100%	90 to 100%	90 to 100%
COc1cccc(Oc2cnc(C)nc2C2=NOC[C@@H](Cc3ccc(C)cc3C)N2)c1 (racemic) [Compound I-032]	90 to 100%	90 to 100%	90 to 100%	90 to 100%	90 to 100%	90 to 100%	80 to 89%	90 to 100%
Cc1ccc(CC2CON=C(c3nc(C)ncc3Oc3cccc(C(F)(F)F)c3)N2)c(C)c1 (racemic) [Compound I-002, (5RS)-5-(2,4-dimethylbenzyl)-3-{2-methyl-5-[3-(trifluoro-methyl)phenoxy]pyrimidin-4-yl}-5,6-dihydro-4H-1,2,4-oxadiazine]	90 to 100%	90 to 100%	90 to 100%	90 to 100%	90 to 100%	90 to 100%	90 to 100%	90 to 100%
Cc1ccc(CC2CON=C(c3nc(C4CC4)ncc3Oc3cccc(C(F)(F)F)c3)N2)c(C)c1 (racemic) [Compound I-001, (5RS)-3-{2-cyclopropyl-5-[3-(trifluoro-methyl)phenoxy]pyrimidin-4-yl}-5-(2,4-dimethylbenzyl)-5,6-dihydro-4H-1,2,4-oxadiazine]	90 to 100%	90 to 100%	90 to 100%	90 to 100%	90 to 100%	90 to 100%	80 to 89%	90 to 100%
Cc1ccc(C[C@@H]2CON=C(c3nc(C)ncc3Oc3cccc(Cl)c3F)N2)c(Cl)c1 (racemic) [Compound I-005]	90 to 100%	90 to 100%	90 to 100%	90 to 100%	90 to 100%	90 to 100%	80 to 89%	90 to 100%
Cc1ncc(Oc2cccc(C(F)(F)F)c2)c(C2=NOCC(Cc3ccc(Br)cc3C)N2)n1 (racemic) [Compound I-021, (5RS)-5-[(4-bromo-2-methyl-phenyl)methyl]-3-[2-methyl-5-[3-(trifluoro-methyl)phenoxy]pyrimidin-4-yl]-5,6-dihydro-4H-1,2,4-oxadiazine]	90 to 100%	90 to 100%	90 to 100%	90 to 100%	90 to 100%	90 to 100%	90 to 100%	90 to 100%
